ChEMBL document CHEMBL5352402, “Discovery of novel non-nucleoside inhibitors with high potency and selectivity for DNA methyltransferase 3A” (Eur J Med Chem, 2022)

What was measured:
[1] = target: T1, DNMT3A2/3L complex (Homo sapiens) (UniProt Q9Y6K1+Q9UJW3); assay: (§1) Inhibition of N-terminal His-tagged human DNMT3A (623 to 912 residues)/N-terminal GST-tagged human DNMT3L (160 to 387 residues) co-expressed in baculovirus infected Sf9 cells assessed as DNA methylation using DNA oligonucleotide IDT-01 as substrate at 100 uM preincubated for 15 mins followed by substrate addition in presence of [3H]-SAM and measured after 4 hrs by radioactive methylation assay; conditions: time 255.0 min
T1 sequence (Q9UJW3 whole entry, looked up, the tested form may be a part): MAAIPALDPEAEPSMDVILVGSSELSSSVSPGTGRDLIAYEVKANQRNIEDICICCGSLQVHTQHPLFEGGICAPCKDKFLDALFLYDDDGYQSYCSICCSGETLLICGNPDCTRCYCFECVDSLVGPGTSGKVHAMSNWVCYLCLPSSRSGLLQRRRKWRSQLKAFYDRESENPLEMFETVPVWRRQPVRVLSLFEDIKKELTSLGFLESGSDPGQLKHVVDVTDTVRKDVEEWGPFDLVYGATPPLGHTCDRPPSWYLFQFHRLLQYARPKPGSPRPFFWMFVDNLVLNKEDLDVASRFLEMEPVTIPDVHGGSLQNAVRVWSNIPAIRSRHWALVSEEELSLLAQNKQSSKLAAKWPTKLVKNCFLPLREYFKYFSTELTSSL
T1 sequence (Q9Y6K1 whole entry, looked up, the tested form may be a part): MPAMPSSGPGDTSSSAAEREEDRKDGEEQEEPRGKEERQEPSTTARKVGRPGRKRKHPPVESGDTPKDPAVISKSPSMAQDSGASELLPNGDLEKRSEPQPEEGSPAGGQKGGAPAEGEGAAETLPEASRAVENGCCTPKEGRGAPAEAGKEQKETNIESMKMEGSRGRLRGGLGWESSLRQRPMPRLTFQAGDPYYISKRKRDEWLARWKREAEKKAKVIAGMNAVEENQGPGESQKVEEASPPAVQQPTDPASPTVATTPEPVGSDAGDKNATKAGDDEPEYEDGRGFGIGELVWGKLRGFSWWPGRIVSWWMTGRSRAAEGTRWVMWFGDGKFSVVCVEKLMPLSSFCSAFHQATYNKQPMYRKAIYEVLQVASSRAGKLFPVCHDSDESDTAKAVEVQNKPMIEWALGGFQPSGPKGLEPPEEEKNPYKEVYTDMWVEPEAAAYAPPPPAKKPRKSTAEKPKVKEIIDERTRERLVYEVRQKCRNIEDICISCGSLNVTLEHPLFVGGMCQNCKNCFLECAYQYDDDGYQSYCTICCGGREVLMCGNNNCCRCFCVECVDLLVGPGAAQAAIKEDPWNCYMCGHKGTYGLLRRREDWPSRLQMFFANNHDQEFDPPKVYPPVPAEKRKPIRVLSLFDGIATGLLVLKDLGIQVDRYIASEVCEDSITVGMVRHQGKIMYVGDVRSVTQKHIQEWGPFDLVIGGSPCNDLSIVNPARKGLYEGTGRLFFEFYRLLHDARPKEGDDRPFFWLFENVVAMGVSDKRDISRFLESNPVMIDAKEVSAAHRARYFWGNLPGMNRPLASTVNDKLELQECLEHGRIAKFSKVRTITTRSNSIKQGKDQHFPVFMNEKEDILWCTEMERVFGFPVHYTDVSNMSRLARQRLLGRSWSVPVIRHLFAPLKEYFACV

DNMT3A2/3L complex = DNMT3A2/3L complex (Homo sapiens, UniProt Q9Y6K1); assay: as §1, with “substrate” for “substrate at 100 uM”
Chain of DNMT3A2/3L complex (Q9Y6K1 whole entry, looked up, one chain of several): as the sequence (Q9Y6K1 whole entry, looked up, the tested form may be a part) above

[2] = target: T1, DNMT3A2/3L complex (Homo sapiens); assay: as §1, with “10” for “100”; conditions: time 255.0 min
[3] = target: DNA (cytosine-5)-methyltransferase 1 (Homo sapiens, UniProt P26358); assay: Inhibition of N-terminal GST-tagged full-length recombinant human DNMT1 assessed as DNA methylation using pdI-pdC DNA as substrate preincubated for 15 mins followed by substrate addition in presence of [3H]-SAM and measured after 150 mins by radioactive methylation assay
Chain of DNA (cytosine-5)-methyltransferase 1 (P26358 whole entry): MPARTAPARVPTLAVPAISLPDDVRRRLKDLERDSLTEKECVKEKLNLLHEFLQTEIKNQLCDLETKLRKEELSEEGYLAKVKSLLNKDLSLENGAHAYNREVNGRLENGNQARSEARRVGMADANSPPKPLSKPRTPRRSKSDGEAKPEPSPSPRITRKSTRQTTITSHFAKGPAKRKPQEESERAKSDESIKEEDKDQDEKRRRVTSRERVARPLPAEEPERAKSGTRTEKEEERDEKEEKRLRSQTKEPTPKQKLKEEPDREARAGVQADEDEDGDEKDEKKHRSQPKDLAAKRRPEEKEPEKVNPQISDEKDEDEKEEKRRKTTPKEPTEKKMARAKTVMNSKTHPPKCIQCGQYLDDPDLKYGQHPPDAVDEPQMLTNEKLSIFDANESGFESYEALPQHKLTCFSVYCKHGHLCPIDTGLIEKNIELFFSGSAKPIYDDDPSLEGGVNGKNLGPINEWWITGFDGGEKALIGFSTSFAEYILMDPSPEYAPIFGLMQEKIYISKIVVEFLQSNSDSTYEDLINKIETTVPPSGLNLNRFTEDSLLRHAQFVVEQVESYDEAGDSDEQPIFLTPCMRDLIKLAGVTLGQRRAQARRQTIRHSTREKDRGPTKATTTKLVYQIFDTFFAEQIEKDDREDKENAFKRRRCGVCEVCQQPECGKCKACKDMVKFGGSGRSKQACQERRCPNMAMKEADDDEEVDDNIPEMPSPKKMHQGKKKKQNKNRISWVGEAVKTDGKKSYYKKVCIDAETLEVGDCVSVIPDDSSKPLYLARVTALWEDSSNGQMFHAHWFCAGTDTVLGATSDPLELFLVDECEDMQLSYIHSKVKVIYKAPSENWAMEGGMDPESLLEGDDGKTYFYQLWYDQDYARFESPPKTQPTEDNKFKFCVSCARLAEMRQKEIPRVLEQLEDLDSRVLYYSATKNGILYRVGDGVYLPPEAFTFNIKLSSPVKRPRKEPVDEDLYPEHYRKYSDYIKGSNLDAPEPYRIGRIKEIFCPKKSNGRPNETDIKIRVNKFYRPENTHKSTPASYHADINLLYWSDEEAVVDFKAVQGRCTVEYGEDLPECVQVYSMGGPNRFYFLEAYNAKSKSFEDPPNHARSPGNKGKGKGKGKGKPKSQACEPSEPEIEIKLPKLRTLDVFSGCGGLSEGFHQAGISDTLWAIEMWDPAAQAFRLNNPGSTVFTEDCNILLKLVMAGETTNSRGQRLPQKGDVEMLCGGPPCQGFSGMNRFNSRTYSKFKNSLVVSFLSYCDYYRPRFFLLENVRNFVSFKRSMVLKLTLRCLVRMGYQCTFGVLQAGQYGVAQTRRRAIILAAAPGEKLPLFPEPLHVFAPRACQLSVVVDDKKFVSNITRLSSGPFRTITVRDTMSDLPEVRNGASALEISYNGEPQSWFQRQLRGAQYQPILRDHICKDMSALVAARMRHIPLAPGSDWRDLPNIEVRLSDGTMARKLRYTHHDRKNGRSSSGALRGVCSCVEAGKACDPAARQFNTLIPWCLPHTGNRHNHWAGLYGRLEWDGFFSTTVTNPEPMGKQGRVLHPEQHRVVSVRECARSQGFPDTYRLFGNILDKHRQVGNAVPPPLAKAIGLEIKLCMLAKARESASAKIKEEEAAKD

DNMT3B = DNMT3B (Homo sapiens, UniProt Q9UBC3); assay: as §1, with “DNMT3B (564” for “DNMT3A (623”, “853” for “912”, “substrate” for “substrate at 100 uM”
[4] = target: T2, Histone-lysine N-methyltransferase EHMT2 (Homo sapiens, UniProt Q96KQ7); assay: Inhibition of N-terminal GST-tagged human G9a expressed in baculovirus infected Sf9 cells using biotinylated histone H3 peptide as substrate preincubated for 15 mins followed by substrate addition in presence of SAM and measured after 60 mins by AlphaLISA assay
T2 sequence (Q96KQ7 whole entry): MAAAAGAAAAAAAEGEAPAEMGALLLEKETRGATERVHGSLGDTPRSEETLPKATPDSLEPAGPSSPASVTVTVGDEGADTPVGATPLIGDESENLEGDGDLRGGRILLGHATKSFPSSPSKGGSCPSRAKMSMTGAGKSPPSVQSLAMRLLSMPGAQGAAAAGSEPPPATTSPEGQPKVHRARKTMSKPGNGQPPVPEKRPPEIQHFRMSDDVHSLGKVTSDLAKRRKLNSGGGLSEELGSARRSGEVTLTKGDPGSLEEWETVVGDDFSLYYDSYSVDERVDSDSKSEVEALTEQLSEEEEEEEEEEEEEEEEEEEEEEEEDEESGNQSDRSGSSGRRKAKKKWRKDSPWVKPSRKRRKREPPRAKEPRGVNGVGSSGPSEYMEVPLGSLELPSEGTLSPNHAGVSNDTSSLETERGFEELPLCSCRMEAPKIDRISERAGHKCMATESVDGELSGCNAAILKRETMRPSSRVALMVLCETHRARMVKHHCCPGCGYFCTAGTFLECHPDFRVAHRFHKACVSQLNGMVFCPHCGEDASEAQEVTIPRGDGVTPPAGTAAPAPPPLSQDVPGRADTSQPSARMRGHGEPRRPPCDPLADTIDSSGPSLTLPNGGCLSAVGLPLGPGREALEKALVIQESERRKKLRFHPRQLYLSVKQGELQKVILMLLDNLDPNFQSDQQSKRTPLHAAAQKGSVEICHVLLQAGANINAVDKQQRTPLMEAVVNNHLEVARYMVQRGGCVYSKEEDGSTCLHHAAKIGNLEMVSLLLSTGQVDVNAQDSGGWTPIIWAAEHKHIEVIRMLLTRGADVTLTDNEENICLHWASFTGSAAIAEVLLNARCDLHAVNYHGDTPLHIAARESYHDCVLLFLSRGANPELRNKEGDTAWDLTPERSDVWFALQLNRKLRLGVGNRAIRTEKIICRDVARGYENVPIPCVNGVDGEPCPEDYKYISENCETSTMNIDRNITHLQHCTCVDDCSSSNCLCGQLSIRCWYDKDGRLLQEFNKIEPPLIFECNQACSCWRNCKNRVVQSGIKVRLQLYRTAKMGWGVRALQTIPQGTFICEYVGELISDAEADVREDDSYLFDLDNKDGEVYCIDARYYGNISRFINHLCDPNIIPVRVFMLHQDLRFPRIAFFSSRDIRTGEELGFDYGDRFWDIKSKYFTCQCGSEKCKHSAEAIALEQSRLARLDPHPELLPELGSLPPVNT

THP-1 [5] = assay: Antiproliferative activity against human THP-1 cells assessed as inhibition of cell proliferation at 0.1 to 100 uM incubated upto 72 hrs by MTT assay; assay type: functional, cell-based; conditions: dose 0.1-100 µM
HCT-116 [6] = assay: Antiproliferative activity against human HCT-116 cells assessed as inhibition of cell proliferation at 0.1 to 100 uM incubated upto 72 hrs by MTT assay; assay type: functional, cell-based; conditions: dose 0.1-100 µM
U-937 [7] = assay: Antiproliferative activity against human U-937 cells assessed as inhibition of cell proliferation at 0.1 to 100 uM incubated upto 72 hrs by MTT assay; assay type: functional, cell-based; conditions: dose 0.1-100 µM
K562 [8] = assay: Antiproliferative activity against human K562 cells assessed as inhibition of cell proliferation at 0.1 to 100 uM incubated upto 72 hrs by MTT assay; assay type: functional, cell-based; conditions: dose 0.1-100 µM
A549 [9] = assay: Antiproliferative activity against human A549 cells assessed as inhibition of cell proliferation at 0.1 to 100 uM incubated upto 72 hrs by MTT assay; assay type: functional, cell-based; conditions: dose 0.1-100 µM
DU-145 [10] = assay: Antiproliferative activity against human DU-145 cells assessed as inhibition of cell proliferation at 0.1 to 100 uM incubated upto 72 hrs by MTT assay; assay type: functional, cell-based; conditions: dose 0.1-100 µM
THP-1 [11] = assay: Antiproliferative activity against human THP-1 cells assessed as inhibition of cell proliferation incubated for 72 hrs by MTT assay; assay type: functional, cell-based; conditions: THP-1, 72 h
K562 [12] = assay: Antiproliferative activity against human K562 cells assessed as inhibition of cell proliferation incubated for 72 hrs by MTT assay; assay type: functional, cell-based; conditions: K562, 72 h
DU-145 [13] = assay: Antiproliferative activity against human DU-145 cells assessed as inhibition of cell proliferation incubated for 72 hrs by MTT assay; assay type: functional, cell-based; conditions: DU-145, 72 h
[14] = Cytotoxicity activity against human PBMC cells assessed as inhibition of cell proliferation incubated for 72 hrs by MTT assay; assay type: toxicity, cell-based
THP-1 [15] = assay: Antiproliferative activity against human THP-1 cells assessed as inhibition of cell proliferation at 100 uM incubated for 24 to 72 hrs by MTT assay; assay type: functional, cell-based; conditions: time 24-72 hrs, TDE = time-dependent effect
HCT-116 [16] = assay: Antiproliferative activity against human HCT-116 cells assessed as inhibition of cell proliferation at 100 uM incubated for 24 to 72 hrs by MTT assay; assay type: functional, cell-based; conditions: time 24-72 hrs, TDE = time-dependent effect
U-937 [17] = assay: Antiproliferative activity against human U-937 cells assessed as inhibition of cell proliferation at 100 uM incubated for 24 to 72 hrs by MTT assay; assay type: functional, cell-based; conditions: time 24-72 hrs, TDE = time-dependent effect
K562 [18] = assay: Antiproliferative activity against human K562 cells assessed as inhibition of cell proliferation at 100 uM incubated for 24 to 72 hrs by MTT assay; assay type: functional, cell-based; conditions: time 24-72 hrs, TDE = time-dependent effect
A549 [19] = assay: Antiproliferative activity against human A549 cells assessed as inhibition of cell proliferation at 100 uM incubated for 24 to 72 hrs by MTT assay; assay type: functional, cell-based; conditions: time 24-72 hrs, TDE = time-dependent effect
DU-145 [20] = assay: Antiproliferative activity against human DU-145 cells assessed as inhibition of cell proliferation at 100 uM incubated for 24 to 72 hrs by MTT assay; assay type: functional, cell-based; conditions: time 24-72 hrs, TDE = time-dependent effect
HCT-116 [21] = assay: cells; conditions: Homo sapiens, HCT-116, 72 h
Description: Antiproliferative activity against human HCT-116 cells assessed as inhibition of cell proliferation incubated for 72 hrs by MTT assay

U-937 [22] = assay: cells; conditions: Homo sapiens, U-937, 72 h
Description: Antiproliferative activity against human U-937 cells assessed as inhibition of cell proliferation incubated for 72 hrs by MTT assay

A549 [23] = assay: cells; conditions: Homo sapiens, A549, 72 h
Description: Antiproliferative activity against human A549 cells assessed as inhibition of cell proliferation incubated for 72 hrs by MTT assay

Cc1oc2ncn(CCCN3CCCCC3)c(=O)c2c1C(=O)Nc1ccc(S(N)(=O)=O)nc1
inhibition [1]: 89.8%
IC50 (DNMT3A2/3L complex): 1.3 µM
inhibition [2]: 66%
IC50 [3]: 15.9 µM
IC50 (DNMT3B): 64.7 µM
IC50 [4]: 14.9 µM
Activity (THP-1 [5]): Dose-Dependent Effect
Activity (HCT-116 [6]): Dose-Dependent Effect
Activity (U-937 [7]): Dose-Dependent Effect
Activity (K562 [8]): Dose-Dependent Effect
Activity (A549 [9]): Dose-Dependent Effect
Activity (DU-145 [10]): Dose-Dependent Effect
IC50 (THP-1 [11]): 4.2 µM
IC50 (K562 [12]): 5.4 µM
IC50 (DU-145 [13]): 4.1 µM
IC50 at 72 h [14]: 144 µM
Activity (THP-1 [15]): Tde
Activity (HCT-116 [16]): Tde
Activity (U-937 [17]): Tde
Activity (K562 [18]): Tde
Activity (A549 [19]): Tde
Activity (DU-145 [20]): Tde
IC50 (HCT-116 [21]): 1.6 µM
IC50 (U-937 [22]): 3.5 µM
IC50 (A549 [23]): 8.5 µM

Cc1oc2ncn(CCN3CCCCC3)c(=O)c2c1C(=O)Nc1ccc(C#N)cc1
inhibition [1]: 14.3%
inhibition [2]: 25.4%

Cc1oc2ncn(CCCN3CCCC3)c(=O)c2c1C(=O)Nc1ccc(S(N)(=O)=O)nc1
inhibition [1]: 94.1%
IC50 (DNMT3A2/3L complex): 1.8 µM
inhibition [2]: 69.6%
IC50 [3]: 9.6 µM
IC50 (DNMT3B): 120 µM
IC50 [4]: 308 µM
Activity (THP-1 [5]): Dose-Dependent Effect
Activity (HCT-116 [6]): Dose-Dependent Effect
Activity (U-937 [7]): Dose-Dependent Effect
Activity (K562 [8]): Dose-Dependent Effect
Activity (A549 [9]): Dose-Dependent Effect
Activity (DU-145 [10]): Dose-Dependent Effect
IC50 (THP-1 [11]): 3.3 µM
IC50 (K562 [12]): 6.5 µM
IC50 (DU-145 [13]): 2.8 µM
IC50 at 72 h [14]: 161 µM
Activity (THP-1 [15]): Tde
Activity (HCT-116 [16]): Tde
Activity (U-937 [17]): Tde
Activity (K562 [18]): Tde
Activity (A549 [19]): Tde
Activity (DU-145 [20]): Tde
IC50 (HCT-116 [21]): 2.1 µM
IC50 (U-937 [22]): 4.2 µM
IC50 (A549 [23]): 15.7 µM

Cc1oc2ncn(CCN(C)C)c(=O)c2c1C(=O)Nc1ccc(C#N)cc1
inhibition [1]: 24%
inhibition [2]: 21.7%

Cc1oc2ncn(CCCN3CCCCC3)c(=O)c2c1C(=O)Nc1ccc(C#N)cc1
inhibition [1]: 44%
inhibition [2]: 32.9%

Cc1oc2ncn(Cc3cccnc3)c(=O)c2c1C(=O)Nc1ccc(S(N)(=O)=O)nc1
inhibition [1]: 48%
IC50 (DNMT3A2/3L complex): > 100 µM
inhibition [2]: 11.3%

Cc1oc2ncn(CCN3CCCC3)c(=O)c2c1C(=O)Nc1ccc(C#N)cc1
inhibition [1]: 48.6%
inhibition [2]: 47.5%

Cc1oc2ncn(CCCN3CCCC3)c(=O)c2c1C(=O)Nc1ccc(C#N)cc1
inhibition [1]: 53.9%
inhibition [2]: 33.7%

Cc1oc2ncn(Cc3ccccc3)c(=O)c2c1C(=O)Nc1ccc(S(N)(=O)=O)nc1
inhibition [1]: 29.5%

Cc1oc2ncn(CCN3CCOCC3)c(=O)c2c1C(=O)Nc1ccc(C#N)cc1
inhibition [1]: 5.8%
inhibition [2]: 1%
